This passage reports IC50 results from patent US7932252B2, “Aryl sulfonamides” (ChemoCentryx, Inc., priority 2004, dated 2011).

The target in this experiment is T1, CCR9 (Homo sapiens, UniProt P51686).
T1 construct: CCR9-expressing cells (such as a T cell line MOLT-4 cells); host or cells: MOLT-4
T1 sequence (P51686 1-369): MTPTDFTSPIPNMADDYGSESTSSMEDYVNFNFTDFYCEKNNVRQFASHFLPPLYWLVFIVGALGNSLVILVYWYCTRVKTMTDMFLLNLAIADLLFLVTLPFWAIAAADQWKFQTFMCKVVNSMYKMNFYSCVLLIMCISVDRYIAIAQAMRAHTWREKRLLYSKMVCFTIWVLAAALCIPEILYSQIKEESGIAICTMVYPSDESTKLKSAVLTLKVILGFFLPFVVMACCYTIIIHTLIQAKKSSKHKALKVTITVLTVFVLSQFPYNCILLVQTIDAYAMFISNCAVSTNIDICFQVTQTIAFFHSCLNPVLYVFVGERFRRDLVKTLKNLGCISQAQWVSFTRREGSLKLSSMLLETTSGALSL
Description: chemotaxis (conventional migration) assay and/or calcium mobilization (calcium flux) assay, TECK-induced, MOLT-4 cells. The experiment is classed as cell-based. The following applies: read-out: IC50, activity in either or both of the chemotaxis assay and calcium mobilization assays. Here is the method: MOLT-4 cells were obtained from the American Type Culture Collection (Manassas, Va.) and cultured in RPMI tissue culture medium supplemented with 10% fetal calf serum (FCS) in a humidified 5% CO2 incubator at 37° C. Recombinant human chemokine protein TECK was obtained from R&D Systems (Minneapolis, Minn.). ChemoTX® chemotaxis microchambers were purchased from Neuro Probe (Gaithersburg, Md.). CyQUANT® cell proliferation kits were purchased from Molecular Probes (Eugene, Oreg.). Calcium indicator dye Fluo-4 AM was purchased from Molecular Devices (Mountain View, Calif.).
Conventional migration assay was used to determine the efficacy of potential receptor antagonists in blocking migration mediated through CCR9. This assay was routinely performed using the ChemoTX® microchamber system with a 5-μm pore-sized polycarbonate membrane. To begin such an assay, MOLT-4 cells were harvested by centrifugation of cell suspension at 1000 PRM on a GS-6R Beckman centrifuge. The cell pellet was resuspended in chemotaxis buffer (HBSS with 0.1% BSA) at 5×10^6 cells/mL. Test compounds at desired concentrations were prepared from 10 mM stock solutions by serial dilutions in chemotaxis buffer. An equal volume of cells and compounds were mixed and incubated at room temperature for 15 minutes. Afterwards, 20 μL of the mixture was transferred onto the porous membrane of a migration microchamber, with 29 μL of 50 nM chemokine TECK protein placed at the lower chamber. Following a 150-minute incubation at 37° C., during which cells migrated against the chemokine gradient, the assay was terminated by removing the cell drops from atop the filter. To quantify cells migrated across the membrane, 5 μL of 7× CyQUANT® solution was added to each well in the lower chamber, and the fluorescence signal measured on a Spectrafluor Plus fluorescence plate reader (TECAN, Durham, N.C.). The degree of inhibition was determined by comparing migration signals between compound-treated and untreated cells. IC50 calculation was further performed by non-linear squares regression analysis using Graphpad Prism (Graphpad Software, San Diego, Calif.).
Calcium flux assay measures an increase in intracellular calcium following ligand-induced receptor activation. In the screen of CCR9 antagonists, it was used as a secondary assay carried out on a FLIPR® machine (Molecular Devices, Mountain View, Calif.). To begin an assay, MOLT-4 cells were harvested by centrifugation of cell suspension, and resuspended to 1.5×10^6 cells/mL in HBSS (with 1% fetal calf serum). Cells were then labeled with a calcium indicator dye Fluo-4 AM for 45 minutes at 37° C. with gentle shaking. Following incubation, cells were pelletted, washed once with HBSS and resuspended in the same buffer at a density of 1.6×10^6 cells/mL. One hundred microliters of labeled cells were mixed with 10 μL of test compound at the appropriate concentrations on an assay plate. Chemokine protein TECK was added at a final concentration of 25 nM to activate the receptor. The degree of inhibition was determined by comparing calcium signals between compound-treated and untreated cells. IC50 calculations were further performed by non-linear squares regression analysis using Graphpad Prism (Graphpad Software, San Diego, Calif.).
Activity is provided as follows for either or both of the chemotaxis assay and/or calcium mobilization assays, described above.
(In general: A change in cytosolic calcium serves as a functional read-out for many receptors and channels.)

The mark [1] stands for this setting: Table 3, assay not specified per compound.
The mark [2] stands for this setting: Table 1, assay not specified per compound.
Where [3] appears, read: Table 4 (++), assay not specified per compound.
Where [4] appears, read: Table 2, assay not specified per compound.

Read-outs that look alike come from different tables or passages of the source. Where only a bound is given, the exact number is not on record here.

Broadly, the IC50 is the concentration needed to halve the response being measured. For the molecule `C=C(c1ccccc1)c1cc(Cl)ccc1NS(=O)(=O)c1ccc(C)cc1`, under setting [1], the IC50 was in the range of 500 to 5000 nM. Still for that read-out and setting: with `CC(C)(C)c1ccc(S(=O)(=O)Nc2ccc(Cl)cc2C(C)(C)c2cc[n+]([O-])cc2)cc1` the figure was 500 to 5000 nM.

For `C=C(c1cc[n+]([O-])cc1)c1cc(Cl)ccc1NS(=O)(=O)c1ccc(C(C)(C)C)cc1`, the half-inhibitory concentration (IC50) under setting [2] is below 500 nM. Regarding `COc1ccc(S(=O)(=O)Nc2ccc(Cl)cc2-c2cccc(OC)c2)cc1`, under setting [3], the IC50 fell in the range of 2000 to 10000 nM.

Consider `CO/N=C(/c1ccncc1)c1cc(Cl)ccc1NS(=O)(=O)c1ccc(C(C)(C)C)cc1`, for which the IC50 under setting [2] was below 500 nM.

Take `CC(C)(C)c1ccc(S(=O)(=O)Nc2ccc(Cl)cc2-c2nccc3c[n+]([O-])ccc23)cc1`: the IC50 under setting [4] is below 2000 nM.

On to `CC(C)(C)c1ccc(S(=O)(=O)Nc2ccc(Cl)cc2C(F)(F)c2cc[n+]([O-])cc2)cc1`, for which the concentration for half-maximal inhibition (IC50) under setting [2] is below 500 nM. Still for that read-out and setting: the same measure for `CC(C)(C)c1ccc(S(=O)(=O)Nc2ccc(Cl)cc2C(O)c2cc[n+]([O-])cc2)cc1` (stereo not drawn): below 500 nM.

As for `COc1ccc(S(=O)(=O)Nc2ccc(Cl)cc2-c2ccccc2)cc1`, the half-inhibitory concentration (IC50) under setting [3] lay within 2000 to 10000 nM. Consider `CC(C)(C)c1ccc(S(=O)(=O)Nc2ccc(Cl)cc2-c2nccc3ccccc23)cc1`, for which the half-maximal inhibitory concentration (IC50) under setting [4] is below 2000 nM. On to `COC(c1cc[n+]([O-])cc1)c1cc(Cl)ccc1NS(=O)(=O)c1ccc(C(C)(C)C)cc1` (stereo not drawn), for which the IC50 under setting [1] fell in the range of 500 to 5000 nM. As to `O=S(=O)(Nc1ccc(Cl)cc1-c1nccc2ccccc12)c1ccc(-c2cnco2)cc1`, the IC50 under setting [4] is below 2000 nM. Take `CC(C)(C)c1ccc(S(=O)(=O)Nc2ccc(Cl)cc2Nc2ccncc2)cc1`: under setting [2], the IC50 was below 500 nM. As to `COc1ccc(S(=O)(=O)Nc2ccc(Cl)cc2-c2ccc(Cl)cc2)cc1`, the IC50 under setting [3] fell in the range of 2000 to 10000 nM. For `CO/N=C(\c1ccncc1)c1cc(Cl)ccc1NS(=O)(=O)c1ccc(C(C)(C)C)cc1`, the IC50 under setting [2] is below 500 nM. As to `CC(C)(C)c1ccc(S(=O)(=O)Nc2ccc(Cl)cc2C(O)c2cccnc2)cc1` (stereo not drawn), the half-inhibitory concentration (IC50) under setting [2] is below 500 nM.

With `CC(C)(C)c1ccc(S(=O)(=O)Nc2ccc(Cl)cc2C(C)(O)c2cc[n+]([O-])cc2)cc1` (stereo not drawn), the half-maximal inhibitory concentration (IC50) under setting [1] is 500 to 5000 nM. Still for that read-out and setting: with `CC(C)(C)c1ccc(S(=O)(=O)Nc2ccc(Cl)cc2C2(c3cc[n+]([O-])cc3)OCCO2)cc1` the figure was 500 to 5000 nM.

In the case of `CCc1ccc(S(=O)(=O)Nc2ccc(Cl)cc2C(O)c2ccncc2)cc1` (stereo not drawn), the concentration for half-maximal inhibition (IC50) under setting [2] is below 500 nM.

Consider `COc1ccc(S(=O)(=O)Nc2ccc(Cl)cc2-c2ccc(F)cc2)cc1`, for which, under setting [3], the IC50 was 2000 to 10000 nM. Same read-out and setting: the same measure for `COc1ccc(S(=O)(=O)Nc2ccc(Cl)cc2-c2ccccc2OC)cc1`: 2000 to 10000 nM. As to `CC(C)(C)c1ccc(S(=O)(=O)Nc2ccc(Cl)cc2-c2ccccn2)cc1`, the IC50 under setting [4] is below 2000 nM. In the case of `O=S(=O)(Nc1ccc(Cl)cc1C(O)c1ccncc1)c1ccc(-c2cnco2)cc1` (stereo not drawn), the IC50 under setting [2] was below 500 nM. Turning to `CC(=O)c1ccc(S(=O)(=O)Nc2ccc(Cl)cc2C(O)c2cccnc2)cc1` (stereo not drawn), the half-inhibitory concentration (IC50) under setting [1] lay within 500 to 5000 nM. In the case of `COc1ccc(-c2cc(Cl)ccc2NS(=O)(=O)c2ccc(OC)cc2)cc1`, the half-inhibitory concentration (IC50) under setting [3] fell in the range of 2000 to 10000 nM. For `CN(C)C(c1ccncc1)c1cc(Cl)ccc1NS(=O)(=O)c1ccc(C(C)(C)C)cc1` (stereo not drawn), the IC50 under setting [1] is 500 to 5000 nM. Take `C=CC(O)(c1cc[n+]([O-])cc1)c1cc(Cl)ccc1NS(=O)(=O)c1ccc(C(C)(C)C)cc1` (stereo not drawn): the IC50 under setting [2] was below 500 nM. For `CC(C)(C)c1ccc(S(=O)(=O)Nc2ccccc2-c2ncc(-c3ccccc3)[nH]2)cc1`, the half-inhibitory concentration (IC50) under setting [3] was 2000 to 10000 nM. `CC(C)(C)c1ccc(S(=O)(=O)Nc2ccc(Cl)cc2C(F)(F)c2ccncc2)cc1`: the 50% inhibitory concentration (IC50) under setting [2] was below 500 nM. Regarding `CC(C)(C)c1ccc(S(=O)(=O)Nc2ccc(Cl)cc2-c2nnn[nH]2)cc1`, the concentration for half-maximal inhibition (IC50) under setting [4] was below 2000 nM. Regarding `CC(C)(C)c1ccc(S(=O)(=O)Nc2ccc(Cl)cc2-c2c3ccccc3cc[n+]2[O-])cc1`, the IC50 under setting [4] was below 2000 nM.

As to `COc1ccc(S(=O)(=O)Nc2ccc(Cl)cc2-c2ccc(C)cc2)cc1`, the IC50 under setting [3] lay within 2000 to 10000 nM. For `CC(=O)N(c1ccncc1)c1cc(Cl)ccc1NS(=O)(=O)c1ccc(C(C)(C)C)cc1`, the IC50 under setting [2] was below 500 nM. For `CC(C)(C)c1ccc(S(=O)(=O)Nc2ccc(Cl)cc2C(O)c2ccncc2)cc1` (stereo not drawn), under setting [2], the 50% inhibitory concentration (IC50) is below 500 nM. As for `CC(C)(C)c1ccc(S(=O)(=O)Nc2ccc(Cl)cc2-c2cc3ccccc3cn2)cc1`, under setting [4], the IC50 is below 2000 nM.

Turning to `CO/N=C(\c1ccccc1)c1cc(Cl)ccc1NS(=O)(=O)c1ccc(C)cc1`, under setting [1], the half-maximal inhibitory concentration (IC50) lay within 500 to 5000 nM.

On to `CC(C)Oc1ccc(S(=O)(=O)Nc2ccc(Cl)cc2C(O)c2ccncc2)cc1` (stereo not drawn), for which the IC50 under setting [2] is below 500 nM. Consider `CC(C)(C)c1ccc(S(=O)(=O)Nc2ccc(Cl)cc2C(O)c2ccccc2)cc1` (stereo not drawn), for which the half-maximal inhibitory concentration (IC50) under setting [2] is below 500 nM. `CC(C)(C)c1ccc(S(=O)(=O)Nc2ccc(Cl)cc2C(N)c2cc[n+]([O-])cc2)cc1` (stereo not drawn): the IC50 under setting [2] is below 500 nM.
